Data set [1] has as its system healthy female Balb/c nude mice. Put plainly: Toxicology evaluation (blood biochemistry, haematology, histology). Type of data set: in vivo, mouse. The following applies: 14 mg/kg. As to the method: The healthy female Balb/c nude mice (6–8 weeks, n = 3) treated with molecule 1 was systematically investigated over 15 days. The mice were sacrificed after treatment with molecule 1 at a dose of 14 mg/kg on the 3rd, 7th and 15th day for blood collection. The blood biochemistry and haematology analyses were performed by Vital River Laboratory Animal Technology Co. Ltd. The histology evaluation was performed by Servicebio. All the toxicology evaluation was carried out in blind manner. […]
mg/kg, n=3) at 3, 7 and 15 d. The control group was healthy mice group without treatment. a, As major indicators of liver function, alanine aminotransferase (ALT), alkaline phosphatase (ALP) and aspartate aminotransferase (AST) levels were evaluated at different time point s. b, Total Protein (TP), albumin (ALB) and globulin (GLO) concentration and A/G (ALB/GLO) levels were evaluated at different time points. c, The creatinine (CRE) and blood urea nitrogen (BUN) levels, important indicators of kidney function, were evaluated at different time points. d, Time-course changes of haematology data, including i) white blood cells, ii) red blood cells, iii) haemoglobin, iv) mean corpuscular volume, v) mean corpuscular haemoglobin, vi) mean corpuscular haemoglobin concentration, vii) platelets and viii) haematocrit after treated with molecule 1 (14 mg/kg) treatment comparing with normal range (green backgrounds). Data are presented as mean ± s.d.
(n=3). e, Histology evaluation of the major organs (liver, spleen, kidney, heart and lung) were collected from the control group without treatment and molecule 1 treated (12 h post injection) group. Scale bars, 100 μm.

Data set [2] can be described thus: Self-assembly behaviour in water (CD, TEM). Type of data set: physicochemical. As to the method:
Fig. 2 The structure conformations and self-assembly properties of molecule 1 in aqueous solution. a Illustration of the self-assembly strategy of molecule 1. b CD spectra of molecule 1 and molecule 4 in deionized water at a concentration of 1 μM. c FTIR spectra of molecule 1 in a monomeric state and molecule 4 in a fibrous assembled state. The arrows identify the typical characteristic peaks of the antiparallel β-sheet structure. d TEM image of self-assembled β-sheet nanofibrils of molecule 1 after treatment with caspase-3 (substrate-to-enzyme ratio of 1 μM/U) in HEPES buffer (50 mM, pH 7.4) for 2 h. The manual measurement of the nanofibril diameter is shown in the zoomed image, and the computational simulation result for the length of molecule 4 is inserted. e WAXS and computational simulation results of the β-sheet self-assemblies (molecule 4) identified the β-sheet and laminate spacing of the structures. f The concentration-dependent CD spectra of molecule 4 in the concentration range of 0.5–10 μM. g Time-dependent TEM images of molecule 4 from 10 min to 12 h for monitoring the growth process of the nanofibrous structures. h Temperature-dependent CD intensity changes at 220 nm of molecules 1 and 4 with a heating rate of 1 °C/min and an equilibrium period of 30 s to reveal the self-assembly mechanisms. Scale bar: 100 nm […]
microscopy (UltraVIEW VoX). […]

The subject of data set [3] is human bladder tumour tissues. The data set is described as follows: Ex vivo NIR imaging of human intact bladder after intravesical instillation. The following applies: 70 mL of 50 μM in PBS pH 7.4 instilled, 37 °C, 1 h. The protocol: After obtaining approval from the institutional review board of the Fourth Hospital of Harbin Medical University, patients with urothelial carcinoma were scheduled for radical cystectomy and appropriate informed consent was obtained. Fresh intact bladder was obtained from the operating room immediately after radical cystectomy and irrigated three times for 5 min via an 18-French (Fr) urinary catheter with sterile saline, and 70 mL of molecule 1 in PBS (50 μM, pH 7.4) was instilled and incubated at 37 °C for 1 h. Then, the unbound molecule 1 was removed by irrigating with sterile saline three times for 5 min, the bladder was opened longitudinally on the anterior wall. Ex vivo fluorescent and white light imaging of the bladder cancer was performed using a near infrared imaging system. To explore the correlation between appearance of fluorescent signal and cancer lesions, standard pathological analysis of represented fluorescent spots were carried out after imaging.

Where a SMILES comes first, the peptide text is derived from it. The star is where a group is joined. X1 = CC1(C)C(=CC=C2CCCC(C=CC3=[N+](CCCCCC(=O)O)c4ccccc4C3(C)C)=C2*)N(CCCCCC(=O)O)c2ccccc21

As to `CC[C@H](C)[C@H](NC(=O)[C@@H]1CCCN1C(=O)[C@@H](NC(=O)[C@H](C)N)C(C)C)C(=O)N[C@@H](C)C(=O)N[C@@H](CCC(N)=O)C(=O)N[C@@H](CCCCN)C(=O)N[C@@H](CC(=O)O)C(=O)N[C@@H](CCC(=O)O)C(=O)N[C@H](C(=O)N[C@@H](CC(=O)O)C(=O)N[C@@H](CCCCN)C(=O)N[C@@H](CC(C)C)C(=O)N[C@H](C(=O)N[C@@H](Cc1ccccc1)C(=O)N[C@@H](Cc1ccccc1)C(=O)N[C@@H](C)C(=O)N[C@@H](CCC(=O)O)C(=O)N[C@@H](CSC1=C(C=CC2=[N+](CCCCCC(=O)O)c3ccccc3C2(C)C)CCCC1=CC=C1N(CCCCCC(=O)O)c2ccccc2C1(C)C)C(=O)NCC(=O)O)C(C)C)C(C)C` [molecule 1] (H-AVPIAQKDEVDKLVFFAEC(X1)G-OH), in data set [1], the “histology evaluation of organs” value was “slightly enlarged splenic corpuscle and expanded germinal centres”; the “signs of acute toxicity within 15 days” value is “did not notice any obvious signs of acute toxicity”. In addition, in data set [1] (days 3, 7 and 15, n = 3), the “creatinine (CRE) and blood urea nitrogen (BUN) levels” value is recorded as “within the normal range”; the “liver function markers (ALT, AST, ALP, albumin concentration)” value is listed as “within reference normal ranges”. Also, in data set [2] (1 μM in deionized water), the “secondary structure by CD” value is listed as “random coiled conformation”. Also, the “state in water (dissolved or fibrous structures; TEM, CD)” value in data set [2] (deionized water, same conditions, TEM 50 μM, from 1% HFIP, 24 h) is “well-dissolved”. In data set [3], the “signal-to-noise ratio of the tumour area versus surrounding normal tissue” value is “up to 2.7 times”.

The record behind these values is paper PMC6813295, “A tumour-selective cascade activatable self-detained system for drug delivery and cancer imaging” (Nature Communications, 2019).
